Legend:
BaF3 parental = experiment: Cytotoxicity test (CellTiter-Glo), BaF3 parental; format: cell-based; details: Mus musculus, 72 hours, read-out: IC50(nM) parental (Ba/F3)
Experimental: (§1) The in vitro anti-proliferative activity of the compounds of the present disclosure against three types of cells that are cultured in vitro was tested by CellTiter-Glo method.
(§2) Cell lines: BaF3 parental; BaF3 [EML4-ALK] (From WuXi PharmaTech) and BaF3 [EMF4-AFK F1196M] (From WuXi PharmaTech); wherein, BaF3 parental was cultured in RPMI1640 medium containing 10 ng/ml IL-3, 10% fetal bovine serum, 100 U/ml penicillin, and 100 μg/ml streptomycin, BaF3 [EMF4-AFK] and BaF3 [EMF4-AFK F1196M] were cultured in RPMI1640 medium containing 10% fetal bovine serum, 100 U/ml penicillin, and 100 μg/ml streptomycin.
(§3) Reagents and materials: RPMI-1640 (GIBCO, Cat. No. A10491-01); fetal bovine serum (GIBCO, Cat. No. 10099141); 0.25% trypsin-EDTA (GIBCO, Cat. No. 25200); penicillin-streptomycin, liquid (GIBCO, Cat. No. 15140-122); DMSO (Sigma, Cat. No. D2650); CellTiter-Glo Test Kit (Promega, Cat. No. G7572), and 96-well plate (Corning, Cat. No. 3365).
(§4) 1. The test compounds were dissolved in DMSO to make stock solutions and subjected to a series gradient dilution to give solutions with 10-fold working concentration.
(§5) 2. The cells in the logarithmic growth phase were diluted with the culture solution to adjust to the specific cell concentration, 90 μi of cell suspension was added to the 96-well plate to make the cell density reach the specified concentration. The plate was incubated in a incubator at 37° C., containing 5% carbon dioxide gas overnight.
(§6) 3. 10 μl drug solutions were added to each well of the 96-well plate inoculated with cells. 10 concentrations of the compounds were tested starting from the highest concentration of 20 μM with a 3-fold series gradient dilution in duplicate.
(§7) 4. After continuously cultured for 72 hours, the cells were detected by CellTiter-Glo for the cell viability. The dose-effect curve was made using GraphPad Prism software and IC50 was calculated.

[1] = Metabolic stability in human liver microsomes; format: in vitro ADME; details: pH 7.4, 1 μM compound, 0.5 mg/mL protein; for microsomal CLint at 1 μM: read-out: CLint (uL/min/mg), Human liver microsome experiment; for half-life at 1 μM: read-out: t1/2 (min), Human liver microsome experiment
Experimental: (§8) Experiments in microsomes: Human liver microsomes: 0.5 mg/mL, Xenotech; Rat liver microsomes: 0.5 mg/mL, Xenotech; Coenzyme (NADPH/NADH): 1 mM, Sigma Life Science; Magnesium chloride: 5 mM, 100 mM phosphate buffer (pH 7.4).
(§9) Preparation of stock solution: Powder of the example compounds was accurately weighed and dissolved in DMSO to 5 mM. Preparation of phosphate buffer (100 mM, pH7.4): A pre-formulated 0.5M potassium dihydrogen phosphate (150 mL) was mixed with 0.5M dibasic potassium phosphate (700 mL). The pH of the mixture was adjusted to 7.4 with 0.5M dibasic potassium phosphate solution. The mixture was diluted 5-fold with ultrapure water before use, and magnesium chloride was added to obtain a phosphate buffer (100 mM) containing 100 mM potassium phosphate, 3.3 mM magnesium chloride, pH7.4. A NADPH regeneration system solution (containing 6.5 mM NADP, 16.5 mM G-6-P, 3 U/mL G-6-PD, 3.3 mM magnesium chloride) was prepared and placed on wet ice prior to use. Preparation of stop solution: acetonitrile solution containing 50 ng/mL propranolol hydrochloride and 200 ng/mL tolbutamide (internal standard). 25057.5 μL of phosphate buffer (pH 7.4) was taken into a 50 mL centrifuge tube, to which 812.5 μL human liver microsomes were added, and mixed to obtain a liver microsome dilution solution with a protein concentration of 0.625 mg/mL. 25057.5 μL of phosphate buffer (pH 7.4) was taken into a 50 mL centrifuge tube, to which 812.5 μL SD rat liver microsomes were added, and mixed to obtain a liver microsome dilution solution with a protein concentration of 0.625 mg/mL.
(§10) Incubation of the samples: The stock solution of the respective compound was respectively diluted to 0.25 mM with an aqueous solution containing 70% acetonitrile, and used as a working solution, ready for use. 398 μL of the dilution solution of human liver microsomes or rat liver microsome were added to a 96-well incubation plate (N=2), respectively, and 2 μL of 0.25 mM working solution was added and mixed.
(§11) Metabolic stability assay: 300 μL of pre-chilled stop solution was added to each well of a 96-well deep well plate and placed on ice as a stop plate. The 96 well incubation plate and NADPH regeneration system were placed in a 37° C. water bath box, shaken at 100 rpm and pre-incubated for 5 min. 80 μL of incubation solution was taken out from each well of the incubation plate and added to the stop plate, mixed, and replenished with 20 μL of NADPH regeneration system solution as a 0-min sample. 80 μL of NADPH regeneration system solution was added to each well of the incubation plate to start the reaction and start counting. […] Separately, 100 μL of the reaction solution was taken at 10, 30, and 90 min reaction, respectively, added to a stop plate, and vortexed for 3 minutes to terminate the reaction. The stop plate was centrifuged at 5000×g at 4° C. for 4 min. 100 μL of the supernatant was added to a 96-well plate to which 100 μL of distilled water was previously added, mixed, and analyzed by LC-MS/MS.
(§12) Data analysis: The peak areas of the corresponding compound and internal standard were detected by LC-MS/MS system, and the ratio of the peak area of the compound to the internal standard was calculated.

ALK [L1196M] = ALK [L1196M] (Homo sapiens, UniProt Q9UM73, L1196M); experiment: Kinase inhibition assay, ALK [L1196M]; format: biochemical
Chain of ALK [L1196M] (Q9UM73 19-1620 L1196M): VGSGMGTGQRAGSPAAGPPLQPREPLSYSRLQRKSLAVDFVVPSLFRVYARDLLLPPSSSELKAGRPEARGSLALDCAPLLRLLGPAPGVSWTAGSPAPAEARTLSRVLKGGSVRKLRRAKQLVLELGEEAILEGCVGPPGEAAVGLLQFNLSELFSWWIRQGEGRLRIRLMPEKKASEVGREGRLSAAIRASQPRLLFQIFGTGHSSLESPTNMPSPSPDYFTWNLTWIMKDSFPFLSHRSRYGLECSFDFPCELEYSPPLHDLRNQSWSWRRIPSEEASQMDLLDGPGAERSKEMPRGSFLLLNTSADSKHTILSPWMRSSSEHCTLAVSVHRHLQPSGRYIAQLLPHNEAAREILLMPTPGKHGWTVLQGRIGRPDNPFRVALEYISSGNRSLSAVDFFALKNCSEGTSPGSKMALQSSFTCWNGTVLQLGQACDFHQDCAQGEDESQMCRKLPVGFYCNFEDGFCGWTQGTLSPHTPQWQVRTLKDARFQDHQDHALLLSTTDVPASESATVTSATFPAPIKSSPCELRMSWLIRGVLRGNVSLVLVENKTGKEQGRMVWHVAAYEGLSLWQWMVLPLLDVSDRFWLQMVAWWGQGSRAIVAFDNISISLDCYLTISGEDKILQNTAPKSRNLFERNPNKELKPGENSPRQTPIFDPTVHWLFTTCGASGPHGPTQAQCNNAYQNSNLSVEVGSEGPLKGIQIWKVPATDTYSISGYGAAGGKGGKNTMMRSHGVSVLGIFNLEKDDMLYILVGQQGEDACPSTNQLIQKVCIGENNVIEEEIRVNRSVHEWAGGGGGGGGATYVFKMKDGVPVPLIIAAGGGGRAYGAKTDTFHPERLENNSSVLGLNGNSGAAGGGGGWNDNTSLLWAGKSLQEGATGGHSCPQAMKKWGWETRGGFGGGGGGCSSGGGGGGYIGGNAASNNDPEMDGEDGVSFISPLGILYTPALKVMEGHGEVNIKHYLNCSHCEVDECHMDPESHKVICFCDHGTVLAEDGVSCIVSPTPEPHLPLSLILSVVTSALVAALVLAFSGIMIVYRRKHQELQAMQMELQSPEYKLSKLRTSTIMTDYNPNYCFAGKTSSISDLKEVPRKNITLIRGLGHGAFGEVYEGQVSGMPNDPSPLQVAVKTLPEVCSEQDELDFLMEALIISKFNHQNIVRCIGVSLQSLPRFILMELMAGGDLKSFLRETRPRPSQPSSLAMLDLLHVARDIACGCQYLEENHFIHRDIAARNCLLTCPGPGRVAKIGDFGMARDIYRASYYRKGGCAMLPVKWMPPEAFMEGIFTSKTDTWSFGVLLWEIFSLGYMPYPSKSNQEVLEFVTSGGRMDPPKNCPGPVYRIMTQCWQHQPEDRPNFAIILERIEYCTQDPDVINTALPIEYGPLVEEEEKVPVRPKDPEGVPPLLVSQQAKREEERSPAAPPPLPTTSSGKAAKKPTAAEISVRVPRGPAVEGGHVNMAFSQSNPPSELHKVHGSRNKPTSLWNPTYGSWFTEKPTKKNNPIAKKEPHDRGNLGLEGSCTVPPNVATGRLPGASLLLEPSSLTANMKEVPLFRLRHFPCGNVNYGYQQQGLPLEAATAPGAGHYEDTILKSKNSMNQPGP
Experimental: (§13) Compound preparation: The test compounds were dissolved in DMSO to make 20 mM stock solutions. The compounds were diluted in DMSO to 0.1 mM (a dilution with 100 times the final concentration) before use, and a 3-fold series gradient dilution with 11 concentrations was made. Dilutions with 4 times of the final concentration were prepared by diluting with buffer when dosing.
(§14) Kinase assay: after preparing the buffer solution, the enzyme was mixed with pre-diluted compounds with different concentrations, and placed at room temperature for 30 minutes in duplicate. The corresponding substrate and ATP were added thereto and reacted at room temperature for 60 minutes (both a negative and a positive control were set). After the reaction, antibody was added for detection, and after incubation at room temperature for 60 minutes, Evnvision detection was carried out, and data was collected. Data was analyzed and fit according to XLfit5 software. IC50 was calculated by the following formula: (IC50=[(ABS test−ABS begin)/(ABS control−ABS begin)]×100).

[2] = Metabolic stability in rat liver microsomes; format: in vitro ADME; details: SD, pH 7.4, 1 μM compound, 0.5 mg/mL protein; for microsomal CLint at 1 μM: read-out: CLint (uL/min/mg), Rat liver microsome experiment; for half-life at 1 μM: read-out: t1/2 (min), Rat liver microsome experiment
Experimental: as §8, §9, §10, §11, §12

ALK[L1196M] (Ba/F3) [3] = target: T1, ALK[L1196M] (Ba/F3) (Homo sapiens, UniProt Q9UM73, L1196M, cells depend on it); experiment: Cytotoxicity test (CellTiter-Glo), BaF3 EML4-ALK L1196M; format: cell-based; details: 72 hours, CellTiter-Glo; read-out: IC50(nM) ALK[L1196M] (Ba/F3)
T1 construct: IC50(nM) ALK[L1196M]; (Ba/F3); other: 72 hours, CellTiter-Glo; BaF3 [EMF4-AFK F1196M]; fused on or other part: Q9HC35 (Echinoderm microtubule-associated protein-like 4)
T1 sequence (Q9UM73 whole entry L1196M, the tested form may be a part): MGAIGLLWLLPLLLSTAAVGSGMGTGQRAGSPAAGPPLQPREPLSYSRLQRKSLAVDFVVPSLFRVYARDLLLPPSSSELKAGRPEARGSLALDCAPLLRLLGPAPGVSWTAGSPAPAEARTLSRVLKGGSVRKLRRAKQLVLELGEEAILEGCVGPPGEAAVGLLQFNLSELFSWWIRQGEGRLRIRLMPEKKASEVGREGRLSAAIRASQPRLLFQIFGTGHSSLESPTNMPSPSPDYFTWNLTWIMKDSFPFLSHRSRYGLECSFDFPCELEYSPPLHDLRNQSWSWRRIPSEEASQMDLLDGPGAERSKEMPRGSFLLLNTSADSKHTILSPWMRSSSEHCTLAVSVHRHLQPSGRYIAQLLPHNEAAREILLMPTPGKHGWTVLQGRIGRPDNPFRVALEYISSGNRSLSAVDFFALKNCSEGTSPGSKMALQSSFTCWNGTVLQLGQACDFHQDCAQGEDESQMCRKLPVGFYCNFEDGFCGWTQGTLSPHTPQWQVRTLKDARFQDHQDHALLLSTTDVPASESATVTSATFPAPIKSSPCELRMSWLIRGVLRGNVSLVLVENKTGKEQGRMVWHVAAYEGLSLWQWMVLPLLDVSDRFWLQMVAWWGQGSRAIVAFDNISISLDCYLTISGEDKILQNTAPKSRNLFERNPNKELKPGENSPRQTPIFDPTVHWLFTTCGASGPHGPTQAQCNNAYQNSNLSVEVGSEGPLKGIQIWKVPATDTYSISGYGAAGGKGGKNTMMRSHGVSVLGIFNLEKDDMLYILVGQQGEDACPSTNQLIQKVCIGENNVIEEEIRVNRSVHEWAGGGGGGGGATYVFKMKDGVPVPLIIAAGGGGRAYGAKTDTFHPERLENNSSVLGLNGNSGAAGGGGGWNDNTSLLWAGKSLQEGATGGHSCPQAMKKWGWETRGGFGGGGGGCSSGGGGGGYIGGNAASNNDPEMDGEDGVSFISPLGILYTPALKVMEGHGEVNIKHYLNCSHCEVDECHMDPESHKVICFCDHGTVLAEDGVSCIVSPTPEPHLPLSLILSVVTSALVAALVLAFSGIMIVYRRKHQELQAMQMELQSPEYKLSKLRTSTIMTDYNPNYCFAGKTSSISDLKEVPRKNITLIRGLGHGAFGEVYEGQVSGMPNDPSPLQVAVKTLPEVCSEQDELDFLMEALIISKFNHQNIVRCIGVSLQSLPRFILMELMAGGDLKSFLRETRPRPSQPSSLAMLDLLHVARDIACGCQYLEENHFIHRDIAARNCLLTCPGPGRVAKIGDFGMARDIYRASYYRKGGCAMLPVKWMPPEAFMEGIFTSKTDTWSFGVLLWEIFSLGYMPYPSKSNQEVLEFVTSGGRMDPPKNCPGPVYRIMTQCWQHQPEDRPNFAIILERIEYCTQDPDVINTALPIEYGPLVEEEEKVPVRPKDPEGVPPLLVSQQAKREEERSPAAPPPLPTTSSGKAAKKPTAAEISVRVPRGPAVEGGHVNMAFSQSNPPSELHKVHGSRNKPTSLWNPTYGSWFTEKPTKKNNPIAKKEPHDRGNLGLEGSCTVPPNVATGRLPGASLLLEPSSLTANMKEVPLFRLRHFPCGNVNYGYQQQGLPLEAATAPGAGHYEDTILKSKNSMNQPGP
Experimental: as §1, §2, §3, §4, §5, §6, §7

ALK[L1196M] (Ba/F3) [4] = experiment: as above; format: cell-based; details: Ba/F3 cells
Experimental: as §1, §2, §3, §4, §5, §6, §7

ALK [WT] = ALK [WT] (Homo sapiens, UniProt Q9UM73); experiment: Kinase inhibition assay, ALK [WT]; format: biochemical
Chain of ALK [WT] (Q9UM73 19-1620): as the sequence (Q9UM73 19-1620 L1196M) above, with M1178L counted along it
Experimental: as §13, §14

BaF3 [EML4-ALK] [5] = experiment: Cytotoxicity test (CellTiter-Glo), BaF3 [EML4-ALK]; format: cell-based; details: Ba/F3 cells
Experimental: as §1, §2, §3, §4, §5, §6, §7

BaF3 [EML4-ALK] [6] = target: T2, BaF3 [EML4-ALK] (Homo sapiens, UniProt Q9UM73); experiment: Cytotoxicity test (CellTiter-Glo), BaF3 [EML4-ALK]; format: cell-based; details: 72 hours, CellTiter-Glo; read-out: IC50(nM) ALK (Ba/F3)
T2 construct: IC50(nM) ALK (Ba/F3); other: 72 hours, CellTiter-Glo; BaF3 [EML4-ALK]; fused on or other part: Q9HC35 (Echinoderm microtubule-associated protein-like 4)
T2 sequence (Q9UM73 whole entry, change not shown, the tested form may be a part): as the sequence (Q9UM73 whole entry L1196M, the tested form may be a part) above, with M1196L counted along it
Experimental: as §1, §2, §3, §4, §5, §6, §7

## COc1cc(CN(C)C)ccc1Nc1ncc(Cl)c(Nc2ccccc2P(C)(C)=O)n1 [Example 1, (2-((5-chloro-2-((4-((dimethylamino)methyl)-2-methoxyphenyl)amino)pyrimidin-4-yl)amino)phenyl)dimethylphosphine oxide]
BaF3 parental
  IC50: ≥ 1000 nM
[1]
  microsomal CLint at 1 μM: 10.6 µL/min/mg
  half-life at 1 μM: 131 min
ALK [L1196M]
  IC50: 5 to 10 nM
[2]
  microsomal CLint at 1 μM: 43.4 µL/min/mg
  half-life at 1 μM: 31.9 min
ALK[L1196M] (Ba/F3) [3]
  GI50: 100 to 200 nM
ALK[L1196M] (Ba/F3) [4]
  Selectivity parental/ALK[L1196M]: <50
ALK [WT]
  IC50: 5 to 10 nM
BaF3 [EML4-ALK] [5]
  Selectivity parental/ALK: <50
BaF3 [EML4-ALK] [6]
  GI50: 50 to 100 nM

## COc1cc(C(C)(C)N)ccc1Nc1ncc(Cl)c(Nc2ccccc2P(C)(C)=O)n1 [Example 13, (2-((2-((4-(2-aminopropan-2-yl)-2-methoxyphenyl)amino)-5-chloropyrimidin-4-yl)amino)phenyl)dimethylphosphine oxide]
BaF3 parental
  IC50: ≥ 1000 nM
[1]
  microsomal CLint at 1 μM: 11.7 µL/min/mg
  half-life at 1 μM: 119 min
ALK [L1196M]
  IC50: ≤ 2 nM
[2]
  microsomal CLint at 1 μM: 9.1 µL/min/mg
  half-life at 1 μM: 152 min
ALK[L1196M] (Ba/F3) [3]
  GI50: 100 to 200 nM
ALK[L1196M] (Ba/F3) [4]
  Selectivity parental/ALK[L1196M]: <50
ALK [WT]
  IC50: ≤ 2 nM
BaF3 [EML4-ALK] [5]
  Selectivity parental/ALK: <50
BaF3 [EML4-ALK] [6]
  GI50: 25 to 50 nM

## COc1cc(CCN)ccc1Nc1ncc(Cl)c(Nc2ccccc2P(C)(C)=O)n1 [Example 2, (2-((2-((4-(2-aminoethyl)-2-methoxyphenyl)amino)-5-chloropyrimidin-4-yl)amino)phenyl)dimethylphosphine oxide]
BaF3 parental
  IC50: ≥ 1000 nM
[1]
  microsomal CLint at 1 μM: 8.7 µL/min/mg
  half-life at 1 μM: 160 min
ALK [L1196M]
  IC50: 2 to 5 nM
[2]
  microsomal CLint at 1 μM: 8.4 µL/min/mg
  half-life at 1 μM: 165 min
ALK[L1196M] (Ba/F3) [3]
  GI50: 200 to 1000 nM
ALK[L1196M] (Ba/F3) [4]
  Selectivity parental/ALK[L1196M]: <50
ALK [WT]
  IC50: ≤ 2 nM
BaF3 [EML4-ALK] [5]
  Selectivity parental/ALK: <50
BaF3 [EML4-ALK] [6]
  GI50: 100 to 200 nM

## COc1cc(C(C)N(C)C)ccc1Nc1ncc(Cl)c(Nc2ccccc2P(C)(C)=O)n1 (stereo not drawn) [Example 8, (2-((5-chloro-2-((4-(1-(dimethylamino)ethyl)-2-methoxyphenyl)amino)pyrimidin-4-yl)amino)phenyl)dimethylphosphine oxide]
BaF3 parental
  IC50: ≥ 1000 nM
[1]
  microsomal CLint at 1 μM: 24.6 µL/min/mg
  half-life at 1 μM: 56.3 min
ALK [L1196M]
  IC50: 2 to 5 nM
[2]
  microsomal CLint at 1 μM: 28.8 µL/min/mg
  half-life at 1 μM: 48.2 min
ALK[L1196M] (Ba/F3) [3]
  GI50: 100 to 200 nM
ALK[L1196M] (Ba/F3) [4]
  Selectivity parental/ALK[L1196M]: <50
ALK [WT]
  IC50: 2 to 5 nM
BaF3 [EML4-ALK] [5]
  Selectivity parental/ALK: 100 to 200
BaF3 [EML4-ALK] [6]
  GI50: 25 to 50 nM

## CNC(C)(C)c1ccc(Nc2ncc(Cl)c(Nc3ccccc3P(C)(C)=O)n2)c(OC)c1 [Example 15, (2-((5-chloro-2-((2-methoxy-4-(2-(methylamino)propan-2-yl)phenyl)amino)pyrimidin-4-yl)amino)phenyl)dimethylphosphine oxide]
BaF3 parental
  IC50: ≥ 1000 nM
[1]
  microsomal CLint at 1 μM: 20.7 µL/min/mg
  half-life at 1 μM: 66.9 min
ALK [L1196M]
  IC50: ≤ 2 nM
[2]
  microsomal CLint at 1 μM: 17.6 µL/min/mg
  half-life at 1 μM: 78.8 min
ALK[L1196M] (Ba/F3) [3]
  GI50: 100 to 200 nM
ALK[L1196M] (Ba/F3) [4]
  Selectivity parental/ALK[L1196M]: <50
ALK [WT]
  IC50: ≤ 2 nM
BaF3 [EML4-ALK] [5]
  Selectivity parental/ALK: <50
BaF3 [EML4-ALK] [6]
  GI50: 50 to 100 nM

## CNCC(C)(C)c1ccc(Nc2ncc(Cl)c(Nc3ccccc3P(C)(C)=O)n2)c(OC)c1 [Example 11, (2-((5-chloro-2-((2-methoxy-4-(2-methyl-1-(methylamino)propan-2-yl)phenyl)amino)pyrimidin-4-yl)amino)phenyl)dimethylphosphine oxide]
BaF3 parental
  IC50: ≥ 1000 nM
[1]
  microsomal CLint at 1 μM: 23.8 µL/min/mg
  half-life at 1 μM: 58.2 min
ALK [L1196M]
  IC50: 5 to 10 nM
[2]
  microsomal CLint at 1 μM: 7.2 µL/min/mg
  half-life at 1 μM: 194 min
ALK[L1196M] (Ba/F3) [3]
  GI50: 50 to 100 nM
ALK[L1196M] (Ba/F3) [4]
  Selectivity parental/ALK[L1196M]: 50 to 100
ALK [WT]
  IC50: 2 to 5 nM
BaF3 [EML4-ALK] [5]
  Selectivity parental/ALK: 100 to 200
BaF3 [EML4-ALK] [6]
  GI50: 25 to 50 nM

— patent US11254696B2, “Dianilinopyrimidine compound for inhibiting kinase activity” (Shenzhen Targetrx, Inc., priority 2017, dated 2022)
